Measurements as given in ChEMBL document CHEMBL3856181, “Cigarette Smoke-Induced Lung Disease Predisposes to More Severe Infection with Nontypeable Haemophilus influenzae: Protective Effects of Andrographolide” (J Nat Prod, 2016).
Calls of active or inactive are those of the source.

What was measured:
Format in all cases: functional, organism-based
Mus musculus [1] = assay: Activation of Nrf2 in cigarette smoke-predisposed BALB/c mouse model of NTHi-inflammation assessed as increase in lung OH-1 expression at 5 and 10 mg/kg, ip administered post 1 and 24 hrs of NTHi-challenge by RT-PCR method
Mus musculus [2] = assay: Antiinflammatory activity in cigarette smoke-predisposed BALB/c mouse model of NTHi-inflammation assessed as suppression of lung TNF-alpha level at 5 and 10 mg/kg, ip administered post 1 and 24 hrs of NTHi-challenge by ELISA
[3] = Downregulation of MMP9 gene expression in lungs of cigarette smoke-predisposed BALB/c mouse model of NTHi-inflammation at 5 and 10 mg/kg, ip administered post 1 and 24 hrs of NTHi-challenge by RT-PCR method
Mus musculus [4] = assay: Antiinflammatory activity in cigarette smoke-predisposed BALB/c mouse model of NTHi-inflammation assessed as suppression of lung 8-OHdG level at 5 and 10 mg/kg, ip administered post 1 and 24 hrs of NTHi-challenge by ELISA
Mus musculus [5] = assay: Antiinflammatory activity in cigarette smoke-predisposed BALB/c mouse model of NTHi-inflammation assessed as suppression of lung IL-1 beta level at 5 and 10 mg/kg, ip administered post 1 and 24 hrs of NTHi-challenge by ELISA
Mus musculus [6] = assay: Antiinflammatory activity in cigarette smoke-predisposed BALB/c mouse model of NTHi-inflammation assessed as suppression of lung CXCL1/KC level at 5 and 10 mg/kg, ip administered post 1 and 24 hrs of NTHi-challenge by ELISA
Mus musculus [7] = assay: Anti-inflammatory activity in cigarette smoke-predisposed BALB/c mouse model of NTHi-inflammation assessed as reduction in neutrophil infiltration in BAL fluid at 10 mg/kg, ip administered at 1 and 24 hrs post NTHi-challenge by Wright-staining based differential cell counting method
Mus musculus [8] = assay: Activation of Nrf2 in cigarette smoke-predisposed BALB/c mouse model of NTHi-inflammation assessed as increase in lung GCLM expression at 5 and 10 mg/kg, ip administered post 1 and 24 hrs of NTHi-challenge by RT-PCR method
Mus musculus [9] = assay: Anti-inflammatory activity in cigarette smoke-predisposed BALB/c mouse model of NTHi-inflammation assessed as reduction in macrophage infiltration in BAL fluid at 10 mg/kg, ip administered at 1 and 24 hrs post NTHi-challenge by Wright-staining based differential cell counting method
Mus musculus [10] = assay: Induction of Nrf2 nuclear translocation in cigarette smoke-predisposed BALB/c mouse model of NTHi-inflammation assessed as Nrf2 binding to antioxidant response element consensus DNA binding site at 5 and 10 mg/kg, ip administered post 1 and 24 hrs of NTHi-challenge by ELISA
Mus musculus [11] = assay: Antiinflammatory activity in cigarette smoke-predisposed BALB/c mouse model of NTHi-inflammation assessed as reduction in lung inflammation score at 10 mg/kg, ip administered at 1 and 24 hrs post NTHi-challenge by hematoxylin and eosin staining-based method
Mus musculus [12] = assay: Activation of Nrf2 in cigarette smoke-predisposed BALB/c mouse model of NTHi-inflammation assessed as increase in lung NQO1 expression at 5 and 10 mg/kg, ip administered post 1 and 24 hrs of NTHi-challenge by RT-PCR method
Mus musculus [13] = assay: Activation of Nrf2 in cigarette smoke-predisposed BALB/c mouse model of NTHi-inflammation assessed as increase in lung GR expression at 5 and 10 mg/kg, ip administered post 1 and 24 hrs of NTHi-challenge by RT-PCR method
[14] = Downregulation of MMP8 gene expression in lungs of cigarette smoke-predisposed BALB/c mouse model of NTHi-inflammation at 5 and 10 mg/kg, ip administered post 1 and 24 hrs of NTHi-challenge by RT-PCR method
Mus musculus [15] = assay: Activation of Nrf2 in cigarette smoke-predisposed BALB/c mouse model of NTHi-inflammation assessed as increase in lung GPx2 expression at 5 and 10 mg/kg, ip administered post 1 and 24 hrs of NTHi-challenge by RT-PCR method
[16] = Reduction of Keap1 gene expression in lungs of cigarette smoke-predisposed BALB/c mouse model of NTHi-inflammation at 5 and 10 mg/kg, ip administered post 1 and 24 hrs of NTHi-challenge by RT-PCR method

C=C1CC[C@@H]2[C@](C)(CO)[C@H](O)CC[C@@]2(C)[C@@H]1C/C=C1/C(=O)OC[C@H]1O
active: Activity (Mus musculus [1]) | inhibition (Mus musculus [2]) | Activity [3] | inhibition (Mus musculus [4]) | inhibition (Mus musculus [5]) | inhibition (Mus musculus [6]) | Activity (Mus musculus [7]) | Activity (Mus musculus [8]) | Activity (Mus musculus [9]) | Activity (Mus musculus [10]) | Activity (Mus musculus [11]) | Activity (Mus musculus [12]) | Activity (Mus musculus [13]) | Activity [14] | Activity (Mus musculus [15]) | Activity [16]
